The values that follow come from ChEMBL document CHEMBL1221408, “Cylindrocyclophanes with proteasome inhibitory activity from the Cyanobacterium Nostoc sp” (J Nat Prod, 2010).

Each structure is given as a SMILES string. A value given as a limit tells only on which side of the number the result lay.

One experiment relates to HT-29. Briefly: Cytotoxicity against human HT-29 cells. The experiment is classed as functional, cell-based.
Experiment [1] can be described thus: Inhibition of 20S proteasome.

Broadly, the EC50 is the concentration at which the effect is half-maximal. What is called IC50 is the point on the concentration scale where inhibition reaches its midpoint. Turning to `C[C@H]1CCCC[C@H](CCCCCl)c2c(O)cc(cc2O)[C@H](O)[C@@H](C)CCCC[C@H](CCCC(Cl)Cl)c2c(O)cc(cc2O)[C@@H]1O` [CYLINDROCYCLOPHANE A3], the response in the experiment on HT-29 was half-maximal at 500 nM (EC50). Besides, the IC50 in experiment [1] stood at 2750 nM. With `C[C@H]1CCCC[C@H](CCCC(Cl)Cl)c2c(O)cc(cc2O)[C@H](O)[C@@H](C)CCCC[C@H](CCCC(Cl)Cl)c2c(O)cc(cc2O)C1` [CYLINDROCYCLOPHANE C4], it took 2800 nM to reach a half-maximal effect in the experiment with HT-29 (EC50). The compound also returned an IC50 in experiment [1] of 11200 nM. For `CCCC[C@H]1CCCC[C@H](C)Cc2cc(O)c(c(O)c2)[C@@H](CCCC)CCCC[C@H](C)[C@@H](O)c2cc(O)c1c(O)c2` [CYLINDROCYCLOPHANE C], in experiment [1], the IC50 worked out at 59300 nM. Same read-out and setting: with `CCCC[C@H]1CCCC[C@H](C)Cc2cc(O)c(c(O)c2)[C@@H](CCCC)CCCC[C@H](C)Cc2cc(O)c1c(O)c2` [CYLINDROCYCLOPHANE F] the figure was > 100000 nM. Turning to `CCCC[C@H]1CCCC[C@H](C)[C@@H](O)c2cc(O)c(c(O)c2)[C@@H](CCCC(Cl)Cl)CCCC[C@H](C)[C@@H](O)c2cc(O)c1c(O)c2` [CYLINDROCYCLOPHANE A2], the EC50 with HT-29 was 1700 nM. Moreover, the IC50 in experiment [1] was found to be 2550 nM.

In the case of `CCCC[C@H]1CCCC[C@H](C)[C@@H](O)c2cc(O)c(c(O)c2)[C@@H](CCCCCl)CCCC[C@H](C)[C@@H](O)c2cc(O)c1c(O)c2` [CYLINDROCYCLOPHANE A1], half-maximal inhibition in experiment [1] (IC50) was put at 27600 nM. Turning to `CCCC[C@H]1CCCC[C@H](C)Cc2cc(O)c(c(O)c2)[C@@H](CCCC(Cl)Cl)CCCC[C@H](C)[C@@H](O)c2cc(O)c1c(O)c2` [CYLINDROCYCLOPHANE C2], the EC50 in the experiment on HT-29 turned out to be 900 nM. This compound yielded an IC50 in experiment [1] of 22800 nM. `C[C@H]1CCCC[C@H](CCCC(Cl)Cl)c2c(O)cc(cc2O)C[C@@H](C)CCCC[C@H](CCCC(Cl)Cl)c2c(O)cc(cc2O)C1` [CYLINDROCYCLOPHANE F4] registered an IC50 in experiment [1] of 44800 nM. That is a double-digit micromolar value. As to `C[C@H]1CCCC[C@H](CCCC(Cl)Cl)c2c(O)cc(cc2O)[C@H](O)[C@@H](C)CCCC[C@H](CCCC(Cl)Cl)c2c(O)cc(cc2O)[C@@H]1O` [CYLINDROCYCLOPHANE A4], the EC50 in the experiment on HT-29 worked out at 2000 nM. This compound had an IC50 in experiment [1] of 3930 nM.

In experiment [1], `CCCC[C@H]1CCCC[C@H](C)[C@@H](O)c2cc(O)c(c(O)c2)[C@@H](CCCC)CCCC[C@H](C)[C@@H](O)c2cc(O)c1c(O)c2` [CYLINDROCYCLOPHANE A] came in with an IC50 of 33900 nM. Consider `C[C@H]1CCCC[C@H](CCCC(Br)Br)c2c(O)cc(cc2O)[C@H](O)[C@@H](C)CCCC[C@H](CCCC(Br)Br)c2c(O)cc(cc2O)[C@@H]1O` [CYLINDROCYCLOPHANE AB4], for which it took 500 nM to reach a half-maximal effect in the experiment on HT-29 (EC50). The compound also displayed an IC50 in experiment [1] of 2230 nM.
